Measured values published in PMC10897196, “Structure–activity characteristics of phenylalanine analogs selectively transported by L-type amino acid transporter 1 (LAT1)” (Scientific Reports, 2024).
Where two headings read alike, the source gives them in different places.

Assays:
human LAT2 [1] = target: T1, human LAT2 (Homo sapiens, UniProt Q9UHI5); assay: Inhibition of L-[14C]alanine uptake in HEK293-hLAT2 cells; type: cell-based
T1 construct: expressed in transfected cells
T1 sequence (Q9UHI5 1-535): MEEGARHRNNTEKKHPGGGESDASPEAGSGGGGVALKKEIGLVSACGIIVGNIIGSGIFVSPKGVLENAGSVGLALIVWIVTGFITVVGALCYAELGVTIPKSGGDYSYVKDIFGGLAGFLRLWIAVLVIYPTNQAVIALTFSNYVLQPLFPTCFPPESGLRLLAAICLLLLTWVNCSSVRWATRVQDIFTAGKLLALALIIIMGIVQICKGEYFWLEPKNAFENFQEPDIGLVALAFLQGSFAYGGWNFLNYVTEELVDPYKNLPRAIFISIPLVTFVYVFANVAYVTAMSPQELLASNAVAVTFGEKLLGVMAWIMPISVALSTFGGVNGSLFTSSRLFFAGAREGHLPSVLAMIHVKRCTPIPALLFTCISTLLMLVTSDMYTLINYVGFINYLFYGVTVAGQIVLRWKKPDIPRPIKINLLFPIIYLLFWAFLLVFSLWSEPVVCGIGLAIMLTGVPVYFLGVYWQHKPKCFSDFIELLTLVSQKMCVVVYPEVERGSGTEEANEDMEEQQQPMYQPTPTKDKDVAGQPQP
T1 sequence (P08195 1-529 partner): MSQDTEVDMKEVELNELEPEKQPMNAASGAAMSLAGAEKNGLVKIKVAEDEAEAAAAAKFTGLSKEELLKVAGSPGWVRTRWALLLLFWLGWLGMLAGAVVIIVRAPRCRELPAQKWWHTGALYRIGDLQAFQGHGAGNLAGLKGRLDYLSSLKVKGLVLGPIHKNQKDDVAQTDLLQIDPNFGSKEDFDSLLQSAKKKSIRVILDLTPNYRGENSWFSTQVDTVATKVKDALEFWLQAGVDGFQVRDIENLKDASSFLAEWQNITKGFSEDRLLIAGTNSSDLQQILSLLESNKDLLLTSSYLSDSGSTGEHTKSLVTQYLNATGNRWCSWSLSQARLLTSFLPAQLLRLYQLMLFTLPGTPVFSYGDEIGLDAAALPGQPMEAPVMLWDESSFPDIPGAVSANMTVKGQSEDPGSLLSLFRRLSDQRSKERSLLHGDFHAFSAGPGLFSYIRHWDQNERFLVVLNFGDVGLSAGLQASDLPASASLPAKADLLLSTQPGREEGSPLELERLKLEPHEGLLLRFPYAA
Excerpt: (§1) In this study, we used the HEK293 cells stably expressing human LAT1 or human LAT2, which form a heterodimeric complex with endogenous 4F2hc (CD98hc), required for plasma membrane localization. We first explored the impact of halogen group positioning in the benzene ring of Phe (Fig. 1) on its interaction with LAT1 and LAT2. […] We conducted inhibition experiments to measure the uptake of L-[^14C]leucine by LAT1 and L-[^14C]alanine by LAT2 in the presence or absence of Phe derivatives with an iodo group at position 2, 3, or 4 in the benzene ring.
(§2) The inhibition experiments were performed as described previously. HEK293-hLAT1 (1.5 × 10^5 cells/well) or HEK293-hLAT2 (2 × 10^5 cells/well) cells were plated onto poly-D-lysine-coated 24-well plates (Corning, New York, USA). Following a 2-day culture period, the uptake of 1 μM L-[^14C]leucine or L-[^14C]alanine was measured for 1 min in the absence or presence of non-radiolabeled test compounds at concentrations of 10, 30, and 100 μM. Radioactivity was quantified using a β-scintillation counter (LSC-3100; Aloka, Tokyo, Japan), and protein concentrations were determined with a Micro BCA Protein Assay Kit (Thermo Fisher Scientific, Rockford, IL). To calculate Ki values, the concentration-dependent uptake of L-[^14C]leucine or L-[^14C]alanine was analyzed in the presence and absence of test compounds[49]. The data were plotted against substrate concentration and fitted to Michaelis–Menten kinetics. Ki values were derived using nonlinear regression analysis with the enzyme kinetics inhibition module in GraphPad Prism software (Version 10.0.2; GraphPad Software Inc., San Diego, CA, USA).

human LAT2 [2] = target: T1, human LAT2; assay: Efflux of pre-loaded L-[14C]alanine from HEK293-hLAT2 cells induced by extracellular compounds; type: cell-based; details: 1 min
Procedure: (§3) We evaluated the efflux of pre-loaded L-[^14C]leucine from LAT1 and pre-loaded L-[^14C]alanine from LAT2 induced by extracellularly applied compounds.
(§4) Efflux experiments were performed as described previously. Cells cultured 48 h were pre-loaded with 5 μM L-[^14C]leucine or L-[^14C]alanine for 10 min at 37 °C. The cells were then washed, and the efflux was induced by incubating cells for 1 min in either the absence or presence of non-radiolabeled test compounds at indicated concentrations. The efflux time of 1 min fell within the linear range of time-dependent substrate efflux mediated by LAT1 and LAT2 (Supplementary Fig. S2). Following incubation, the medium was collected and radioactivity was measured in both the medium and the cells. Efflux was quantified as the percentage of radioactivity released into the medium, calculated using the formula: radioactivity of medium/(radioactivity of medium + radioactivity of cells) × 100%.
(§5) The kinetic parameters for the efflux of L-[^14C]leucine or L-[^14C]alanine induced by various concentrations of extracellularly-applied test compounds were analyzed. The baseline efflux values—those obtained in the absence of test compounds—were subtracted from the values measured in the presence of the compounds. The resultant data were fitted to Michaelis–Menten kinetics to determine the Km and Vmax by nonlinear regression analysis using “enzyme kinetics-velocity as a function of substrate” module within GraphPad Prism software.

human LAT1 [3] = target: T2, human LAT1 (Homo sapiens, UniProt Q01650); assay: Inhibition of L-[14C]leucine uptake in HEK293-hLAT1 cells; type: cell-based; details: for Ki: L-[14C]leucine uptake
T2 construct: expressed in transfected cells
T2 sequence (Q01650 whole entry, one chain of several): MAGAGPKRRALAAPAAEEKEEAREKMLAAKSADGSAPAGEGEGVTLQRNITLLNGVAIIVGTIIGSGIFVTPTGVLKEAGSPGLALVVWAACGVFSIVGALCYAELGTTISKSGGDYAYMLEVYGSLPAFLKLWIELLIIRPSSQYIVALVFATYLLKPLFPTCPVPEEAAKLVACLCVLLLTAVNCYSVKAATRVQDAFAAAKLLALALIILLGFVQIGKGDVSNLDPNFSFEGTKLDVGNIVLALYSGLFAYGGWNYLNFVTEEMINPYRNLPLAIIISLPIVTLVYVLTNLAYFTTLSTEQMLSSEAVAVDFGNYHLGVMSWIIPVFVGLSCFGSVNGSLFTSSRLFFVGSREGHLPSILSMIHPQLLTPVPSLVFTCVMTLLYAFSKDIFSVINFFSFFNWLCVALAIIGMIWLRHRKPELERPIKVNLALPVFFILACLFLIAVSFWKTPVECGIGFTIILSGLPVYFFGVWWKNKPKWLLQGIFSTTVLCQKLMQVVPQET
Excerpt: as §1, §2

human LAT1 [4] = target: T2, human LAT1; assay: Efflux of pre-loaded L-[14C]leucine from HEK293-hLAT1 cells induced by extracellular compounds; type: cell-based; details: 1 min
Procedure: as §3, §4, §5

LAT1 = tested on: LAT1; parameters: method as in PMID 1559223; details: in situ brain perfusion; cited from earlier work
[5] = LAT1, L-[14C]leucine efflux, mean ± S.E.M., n = 3

In the case of `N[C@]1(C(=O)O)CCc2ccccc2C1` [bicyclic-Phe, (R)-2-amino-1,2,3,4-tetrahydro-2-naphthoic acid], the “Inhibition of LAT2-mediated L-[14C]alanine uptake (in words, rank order)” value (human LAT2 [1]; 1 μM L-[14C]alanine, 1 min, compounds at 10, 30, 100 μM) is reported as “minimal inhibition”, the Ki (human LAT2 [1]; L-[14C]alanine uptake, HEK293-hLAT2, mean ± S.E.M., n = 3–4, read-out: Ki (μM) LAT2) is reported as 3750 ± 740 µM and the Ki (human LAT2 [1]; as quoted in the discussion, read-out: Ki value for LAT2) is reported as ~3800 µM. The “Vmax of efflux (% radioactivity/min)” value (human LAT2 [2]; LAT2, L-[14C]alanine efflux, mean ± S.E.M., n = 3) was 10.05 ± 0.27 % radioactivity/min, the “LAT2-mediated L-[14C]alanine efflux induced (in words)” value (human LAT2 [2]; compounds at 10, 30, 100 μM) was “not efficiently transported by LAT2” and the “Inhibition of LAT1-mediated L-[14C]leucine uptake (in words, rank order)” value (human LAT1 [3]; 1 μM L-[14C]leucine, 1 min, compounds at 10, 30, 100 μM) was “inhibit”. For the same molecule, the Ki (human LAT1 [3]; Ki for LAT1 calculated at 100 μM of compound, HEK293-hLAT1, inhibitor at 100 μM) was 78.2 ± 13.9 µM, the Ki (human LAT1 [3]; Ki for LAT1 calculated at 300 μM of compound, HEK293-hLAT1, inhibitor at 300 μM) was 66.7 ± 7.08 µM and the “Mode of inhibition of LAT1 (Lineweaver–Burk plot)” value (human LAT1 [3]; L-[14C]leucine 50, 100, 200, 400 μM) was “competitive manner”. For the same molecule, the Ki (human LAT1 [3]; HEK293-hLAT1, mean ± S.E.M., n = 3–4, read-out: Ki (μM) LAT1) was 78.2 ± 13.9 µM, the “Ki ratio (LAT2/LAT1)” value (human LAT1 [3]; LAT1 selectivity, LAT2 Ki over LAT1 Ki) was 47.98 and the Km (human LAT1 [4]; [5]) was 27.3 ± 3.08 µM. For the same molecule, the “Vmax of efflux (% radioactivity/min)” value (human LAT1 [4]; [5]) was 15.43 ± 0.40 % radioactivity/min, the “LAT1-mediated L-[14C]leucine efflux induced (in words)” value (human LAT1 [4]; compounds at 10, 30, 100 μM) was “transported by LAT1 as substrates” and the “Vmax of BBB transport relative to melphalan” value (LAT1) was “approximately seven times higher”.
